According to ChEMBL document CHEMBL2157886, “Synthesis and evaluation of ¹⁸F-labeled styryltriazole and resveratrol derivatives for β-amyloid plaque imaging” (J Med Chem, 2012):
Each block holds one compound with its values, some of them ahead of it.

Tests used:
[1] = Binding affinity to amyloid beta (1-42) aggregates
[2] = test system: Brain; assay: Ratio of drug uptake in BALB/c mouse brain after 5 mins to 30 mins; type: ADME, tissue-based; conditions: in vivo
[3] = Displacement of [125I]TZDM from amyloid beta (1 to 42) aggregates after 3 hrs by gamma counting
[4] = test system: Brain; assay: Drug uptake in ICR mouse brain at 1.11 MBq, iv after 60 mins postinjection; type: ADME, organism-based; conditions: in vivo, 1 h
[5] = test system: Spleen; assay: Drug uptake in ICR mouse spleen at 1.11 MBq, iv after 120 mins postinjection; type: ADME, organism-based; conditions: in vivo, 2 h
[6] = test system: Blood; assay: Drug uptake in ICR mouse blood at 1.11 MBq, iv after 120 mins postinjection; type: ADME, organism-based; conditions: in vivo, 2 h
[7] = test system: Kidney; assay: Drug uptake in ICR mouse kidney at 1.11 MBq, iv after 60 mins postinjection; type: ADME, organism-based; conditions: in vivo, 1 h
[8] = test system: Spleen; assay: Drug uptake in ICR mouse spleen at 1.11 MBq, iv after 30 mins postinjection; type: ADME, organism-based; conditions: in vivo, 0.5 h
[9] = test system: Lung; assay: Drug uptake in ICR mouse lung at 1.11 MBq, iv after 2 mins postinjection; type: ADME, organism-based; conditions: in vivo
[10] = test system: Lung; assay: Drug uptake in ICR mouse lung at 1.11 MBq, iv after 30 mins postinjection; type: ADME, organism-based; conditions: in vivo, 0.5 h
[11] = test system: Liver; assay: Drug uptake in ICR mouse liver at 1.11 MBq, iv after 30 mins postinjection; type: ADME, organism-based; conditions: in vivo, 0.5 h
[12] = test system: Femur; assay: Drug uptake in ICR mouse femur at 1.11 MBq, iv after 120 mins postinjection; type: ADME, organism-based; conditions: in vivo, 2 h
[13] = Octanol-water partition coefficient, log P of the compound; type: physicochemical
[14] = test system: Brain; assay: Drug uptake in ICR mouse brain at 1.11 MBq, iv after 30 mins postinjection; type: ADME, organism-based; conditions: in vivo, 0.5 h
[15] = test system: Blood; assay: Drug uptake in ICR mouse blood at 1.11 MBq, iv after 2 mins postinjection; type: ADME, organism-based; conditions: in vivo
[16] = test system: Kidney; assay: Drug uptake in ICR mouse kidney at 1.11 MBq, iv after 120 mins postinjection; type: ADME, organism-based; conditions: in vivo, 2 h
[17] = test system: Brain; assay: Ratio of drug uptake in mouse brain after 2 mins to 30 mins; type: ADME, tissue-based; conditions: in vivo
[18] = test system: Brain; assay: Drug uptake in ICR mouse brain at 1.11 MBq, iv after 120 mins postinjection; type: ADME, organism-based; conditions: in vivo, 2 h
[19] = test system: Brain; assay: Ratio of drug uptake in mouse brain after 2 mins to 60 mins; type: ADME, tissue-based; conditions: in vivo
[20] = test system: Liver; assay: Drug uptake in ICR mouse liver at 1.11 MBq, iv after 120 mins postinjection; type: ADME, organism-based; conditions: in vivo, 2 h
[21] = test system: Heart; assay: Drug uptake in ICR mouse heart at 1.11 MBq, iv after 30 mins postinjection; type: ADME, organism-based; conditions: in vivo, 0.5 h
[22] = test system: Liver; assay: Drug uptake in ICR mouse liver at 1.11 MBq, iv after 2 mins postinjection; type: ADME, organism-based; conditions: in vivo
[23] = test system: Blood; assay: Drug uptake in ICR mouse blood at 1.11 MBq, iv after 30 mins postinjection; type: ADME, organism-based; conditions: in vivo, 0.5 h
[24] = test system: Femur; assay: Drug uptake in ICR mouse femur at 1.11 MBq, iv after 30 mins postinjection; type: ADME, organism-based; conditions: in vivo, 0.5 h
[25] = test system: Femur; assay: Drug uptake in ICR mouse femur at 1.11 MBq, iv after 60 mins postinjection; type: ADME, organism-based; conditions: in vivo, 1 h
[26] = test system: Muscle tissue; assay: Drug uptake in ICR mouse muscle at 1.11 MBq, iv after 60 mins postinjection; type: ADME, organism-based; conditions: in vivo, 1 h
[27] = test system: Spleen; assay: Drug uptake in ICR mouse spleen at 1.11 MBq, iv after 2 mins postinjection; type: ADME, organism-based; conditions: in vivo
[28] = test system: Lung; assay: Drug uptake in ICR mouse lung at 1.11 MBq, iv after 120 mins postinjection; type: ADME, organism-based; conditions: in vivo, 2 h
[29] = test system: Spleen; assay: Drug uptake in ICR mouse spleen at 1.11 MBq, iv after 60 mins postinjection; type: ADME, organism-based; conditions: in vivo, 1 h
[30] = test system: Muscle tissue; assay: Drug uptake in ICR mouse muscle at 1.11 MBq, iv after 2 mins postinjection; type: ADME, organism-based; conditions: in vivo
[31] = test system: Heart; assay: Drug uptake in ICR mouse heart at 1.11 MBq, iv after 60 mins postinjection; type: ADME, organism-based; conditions: in vivo, 1 h
[32] = test system: Heart; assay: Drug uptake in ICR mouse heart at 1.11 MBq, iv after 2 mins postinjection; type: ADME, organism-based; conditions: in vivo
[33] = test system: Liver; assay: Drug uptake in ICR mouse liver at 1.11 MBq, iv after 60 mins postinjection; type: ADME, organism-based; conditions: in vivo, 1 h
[34] = test system: Heart; assay: Drug uptake in ICR mouse heart at 1.11 MBq, iv after 120 mins postinjection; type: ADME, organism-based; conditions: in vivo, 2 h
[35] = test system: Lung; assay: Drug uptake in ICR mouse lung at 1.11 MBq, iv after 60 mins postinjection; type: ADME, organism-based; conditions: in vivo, 1 h
[36] = test system: Blood; assay: Drug uptake in ICR mouse blood at 1.11 MBq, iv after 60 mins postinjection; type: ADME, organism-based; conditions: in vivo, 1 h
[37] = test system: Muscle tissue; assay: Drug uptake in ICR mouse muscle at 1.11 MBq, iv after 120 mins postinjection; type: ADME, organism-based; conditions: in vivo, 2 h
[38] = test system: Brain; assay: Drug uptake in ICR mouse brain at 1.11 MBq, iv after 2 mins postinjection; type: ADME, organism-based; conditions: in vivo
[39] = test system: Femur; assay: Drug uptake in ICR mouse femur at 1.11 MBq, iv after 2 mins postinjection; type: ADME, organism-based; conditions: in vivo
[40] = test system: Kidney; assay: Drug uptake in ICR mouse kidney at 1.11 MBq, iv after 30 mins postinjection; type: ADME, organism-based; conditions: in vivo, 0.5 h
[41] = test system: Kidney; assay: Drug uptake in ICR mouse kidney at 1.11 MBq, iv after 2 mins postinjection; type: ADME, organism-based; conditions: in vivo
[42] = test system: Muscle tissue; assay: Drug uptake in ICR mouse muscle at 1.11 MBq, iv after 30 mins postinjection; type: ADME, organism-based; conditions: in vivo, 0.5 h
[43] = test system: Brain; assay: Drug uptake in mouse brain after 2 mins; type: ADME, tissue-based; conditions: in vivo
[44] = Partition coefficient, log P of the compound; type: physicochemical; conditions: octanol/water
[45] = test system: Cynomolgus monkey; assay: Drug uptake in cynomolgus monkey brain after 55 mins; type: ADME, organism-based, Macaca fascicularis; conditions: in vivo
[46] = test system: Cynomolgus monkey; assay: Drug uptake in cynomolgus monkey brain after 1.5 mins; type: ADME, organism-based, Macaca fascicularis; conditions: in vivo, 0.025 h

SMILES: CN(C)c1ccc(-c2nc3ccc([125I])cc3s2)cc1
Ki [1]: 1.9 nM

SMILES: CNc1ccc(-c2cn3c(n2)sc2cc(OC)ccc23)cc1
Ki [1]: 3.5 nM

SMILES: COc1ccc2c(c1)sc1nc(-c3ccc(N[11CH3])cc3)cn12
Ratio [2]: 9.1

SMILES: [11CH3]Nc1ccc(-c2nc3ccc(O)cc3s2)cn1
Ki [1]: 19.7 nM

SMILES: CN(C)c1ccc(-c2nc3ccc([125I])cc3o2)cc1
Ki [1]: 0.8 nM

SMILES: CN(C)c1ccc(-c2cn3cc([125I])ccc3n2)cc1
Drug uptake [43]: 2.88 %ID

SMILES: CNc1ccc(-c2cc3cc(O)ccc3o2)c([18F])n1 [FLUTAFURANOL F 18]
Drug uptake [45]: 0.5 %ID
Drug uptake [46]: 5.2 %ID

SMILES: CNc1ccc(-c2nc3ccc(O)cc3s2)cc1[18F] [FLUTEMETAMOL F 18]
Ki [1]: 0.74 nM

Further lines, results first:

Ki [3]: 4.95 nM
SMILES: COc1cc(/C=C/c2ccc(F)cc2)cc(OC)c1

Ratio [2]: 5.6
SMILES: CNc1ccc(-c2cn3c(n2)sc2cc(OCC[18F])ccc23)cc1

Drug uptake [4]: 1.13 % ID/g
Drug uptake [5]: 0.97 % ID/g
Drug uptake [6]: 0.38 % ID/g
Drug uptake [7]: 2.76 % ID/g
Drug uptake [8]: 1.23 % ID/g
Drug uptake [9]: 8.17 % ID/g
Drug uptake [10]: 1.72 % ID/g
Drug uptake [11]: 5.99 % ID/g
Drug uptake [12]: 16.15 % ID/g
logP [13]: 2.84
Drug uptake [14]: 2.09 % ID/g
Drug uptake [15]: 2.08 % ID/g
Drug uptake [16]: 1.65 % ID/g
Ratio [17]: 1.6
Drug uptake [18]: 1 % ID/g
Ratio [19]: 2.9
Drug uptake [20]: 4.47 % ID/g
Drug uptake [21]: 1.35 % ID/g
Drug uptake [22]: 14.35 % ID/g
Drug uptake [23]: 0.98 % ID/g
Drug uptake [24]: 5.24 % ID/g
Drug uptake [25]: 9.73 % ID/g
Drug uptake [26]: 0.74 % ID/g
Drug uptake [27]: 3.15 % ID/g
Drug uptake [28]: 1.16 % ID/g
Drug uptake [29]: 0.84 % ID/g
Drug uptake [30]: 3.67 % ID/g
Drug uptake [31]: 0.56 % ID/g
Drug uptake [32]: 7.22 % ID/g
Drug uptake [33]: 2.47 % ID/g
Drug uptake [34]: 0.61 % ID/g
Drug uptake [35]: 1.08 % ID/g
Drug uptake [36]: 0.43 % ID/g
Drug uptake [37]: 1.07 % ID/g
Drug uptake [38]: 3.26 % ID/g
Drug uptake [39]: 1.88 % ID/g
Drug uptake [40]: 2.86 % ID/g
Drug uptake [41]: 10.46 % ID/g
Drug uptake [42]: 1.27 % ID/g
SMILES: COc1cc(/C=C/c2ccc(OCCC[18F])cc2)cc(OC)c1

Drug uptake [4]: 0.52 % ID/g
Drug uptake [5]: 0.49 % ID/g
Drug uptake [6]: 0.98 % ID/g
Drug uptake [7]: 3.7 % ID/g
Drug uptake [8]: 0.85 % ID/g
Drug uptake [9]: 5.73 % ID/g
Drug uptake [10]: 1.75 % ID/g
Drug uptake [11]: 7.59 % ID/g
Drug uptake [12]: 1.54 % ID/g
logP [13]: 1.74
Drug uptake [14]: 0.68 % ID/g
Drug uptake [15]: 3.35 % ID/g
Drug uptake [16]: 1.86 % ID/g
Ratio [17]: 7.9
Drug uptake [18]: 0.48 % ID/g
Ratio [19]: 10.3
Drug uptake [20]: 3.47 % ID/g
Drug uptake [21]: 1.32 % ID/g
Drug uptake [22]: 12.5 % ID/g
Drug uptake [23]: 2.16 % ID/g
Drug uptake [24]: 0.7 % ID/g
Drug uptake [25]: 0.94 % ID/g
Drug uptake [26]: 0.51 % ID/g
Drug uptake [27]: 2.36 % ID/g
Drug uptake [28]: 0.76 % ID/g
Drug uptake [29]: 0.6 % ID/g
Drug uptake [30]: 2.44 % ID/g
Drug uptake [31]: 0.81 % ID/g
Drug uptake [32]: 3.8 % ID/g
Drug uptake [33]: 3.47 % ID/g
Drug uptake [34]: 0.71 % ID/g
Drug uptake [35]: 1.04 % ID/g
Drug uptake [36]: 1.27 % ID/g
Drug uptake [37]: 0.4 % ID/g
Drug uptake [38]: 5.38 % ID/g
Drug uptake [39]: 1.49 % ID/g
Drug uptake [40]: 7.32 % ID/g
Drug uptake [41]: 7.32 % ID/g
Drug uptake [42]: 0.74 % ID/g
SMILES: CN(C)c1ccc(/C=C/c2cn(CC[18F])nn2)cc1

Ki [3]: 0.74 nM
SMILES: COc1cc(/C=C/c2ccc(OCCF)cc2)cc(OC)c1

Ki [3]: 0.49 nM
SMILES: COc1cc(/C=C/c2ccc(OCCCF)cc2)cc(OC)c1

Ki [3]: 12.8 nM
SMILES: CN(C)c1ccc(/C=C/c2cn(CCF)nn2)cc1

Ki [3]: 39.7 nM
SMILES: Oc1cc(O)cc(/C=C/c2ccc(F)cc2)c1

logP [44]: 2.41
Ki [1]: 2.22 nM
Ratio [17]: 4.89
Drug uptake [43]: 7.77 % ID/g
SMILES: CNc1ccc(/C=C/c2ccc(OCCOCCOCC[18F])cc2)cc1 [FLORBETABEN F18]

logP [44]: 2.41
Ki [1]: 2.87 nM
Ratio [19]: 3.9
SMILES: CNc1ccc(/C=C/c2ccc(OCCOCCOCC[18F])nc2)cc1 [FLORBETAPIR F 18]
